# Laboratory results taken from patent US4806566A, “Anti-gram positive bacteria tri-yne carbonates” (Merck & Co., Inc., priority 1987, dated 1989).
# Columns and labels:
# [1] = system: S. arueus; assay: Minimum inhibitory concentration, agar dilution, S. aureus; format: cell-based; details: Staphylococcus aureus, 24 h
# Experimental: (§1) The free acid of the compound of formula I was prepared as aqueous solutions at a concentration of 1.28 mg/ml. Comparative agents vancomycin and streptomycin were prepared at 1.28 mg/ml in Sorensens' buffer, pH 7.
# (§2) Each of the drugs was serially diluted twofold in 20×100 mm sterile petri dishes with the aid of a Pipetman. To each plate containing 1 ml of the antibiotic dilution was added 9 ml molten trypticase soy agar (TSA) (BBL) to yield final drug concentrations ranging from 128-0.031 mcg/ml. Plates were swirled to mix, allowed to solidify at room temperature and were stored overnight at 5° C.
# (§3) Cultures were grown in trypticase soy broth (TSB) for 16 hours at 35° C. They were diluted 1-100 in TSB to obtain an inoculum of 10^4 cfu/spot when plated using a Denley multipoint inoculator calibrated to deliver 0.0015 ml. Inoculated plates were incubated for 24 hours at 35° C.
# (§4) The minimum inhibitory concentration (MIC) was defined as the lowest concentration that allowed no growth or a barely visible haze.
# [2] = system: Staphyloccoccus aureus methicillin-resistant (S. aureus Meth-R); assay: Minimum inhibitory concentration, agar dilution, methicillin-resistant Staphylococcus aureus; format: cell-based; details: one isolate per line, 10^4 cfu/spot, trypticase soy agar, 24 hours at 35° C.
# Experimental: as §1, §2, §3, §4
# [3] = Stability of the free acid to concentration; format: physicochemical; details: on concentration of solutions
# Experimental: (d) Due to the instability of the free acid of the compound of formula I to concentration, an alternate method was used to provide concentrated solutions. LH20 fractions 13-25 from Step C, 3250 ml, was extracted with 500 ml of 0.1M potassium phosphate buffer pH 7.2. The compound was extracted into the aqueous layer, 620 ml, which was reextracted with 200 ml of methylene chloride at pH 4.5. The methylene chloride extract was dried over anhydrous sodium sulfate. The extraction volumes could be adjusted to provide varying concentrations of the free acid of the compound of formula I in methylene chloride.
# [4] = system: Streptococcus faecalis; assay: Minimum inhibitory concentration, agar dilution, Streptococcus faecalis; format: cell-based; details: Enterococcus faecalis, 24 h, one isolate per line, 10^4 cfu/spot, trypticase soy agar, 24 hours at 35° C.
# Experimental: as §1, §2, §3, §4
Compound,MIC [1],MIC [2],instability of the free acid to concentration [3],MIC [4]
"C#CC#CC#CC(O)C1OC(=O)OC1CCCCCCC(=O)O (stereo not drawn) [Free Acid of the Compound of Formula I, 5-(1-hydroxy-2,4,6-heptatriynyl)-2-oxo-1,3 dioxolane]",1 mg/L,0.5 mg/L,instability,
[H]/N=C(/N)N[C@H]1[C@H](O)[C@@H](O)[C@H](O[C@@H]2O[C@@H](C)[C@](O)(C=O)[C@H]2O[C@@H]2O[C@@H](CO)[C@H](O)[C@@H](O)[C@@H]2NC)[C@@H](N/C(N)=N\[H])[C@@H]1O [Streptomycin],116 mg/L,,,> 128 mg/L
CN[C@H](CC(C)C)C(=O)N[C@H]1C(=O)N[C@@H](CC(N)=O)C(=O)N[C@H]2C(=O)N[C@H]3C(=O)N[C@H](C(=O)N[C@H](C(=O)O)c4cc(O)cc(O)c4-c4cc3ccc4O)[C@H](O)c3ccc(c(Cl)c3)Oc3cc2cc(c3O[C@@H]2O[C@H](CO)[C@@H](O)[C@H](O)[C@H]2O[C@H]2C[C@](C)(N)[C@H](O)[C@H](C)O2)Oc2ccc(cc2Cl)[C@H]1O [Vancomycin],,,,4 mg/L
